Values quoted from earlier work in patent EP4106725B1, “WATER-SOLUBLE SOLID DISPERSION OF QUERCETIN, FORMS THEREOF, A METHOD OF OBTAINING THEREOF, USE OF ALKALINE AGENT, AND A KIT” ("Scientific Industrial Centre "Borshchahivskiy Chemical …, priority 2020, dated 2021).

Key:
[1] = crystalline dehydrated state and dihydrate

Compound	solubility in water [1]	acidity constant value pKa1 (hydroxylic group in 4'-position)	acidity constant value pKa2 (hydroxylic group in 7-position)	pKa (acidity constant of the alkaline agent)
O=c1c(O)c(-c2ccc(O)c(O)c2)oc2cc(O)cc(O)c12 [quercetin, 2-(3,4-dihydroxyphenyl)-3,5,7-trihydroxy-4H-chromen-4-one]	~ 1 mg/100 mL	6.62 ± 0.04	9.7 ± 0.3	
O=C([O-])[O-].[Na+].[Na+] [Na2CO3, sodium carbonate]				10.33
